Data from patent US10544154B2, “Opioid receptor antagonist prodrugs” (Nirsum Laboratories, Inc., priority 2017, dated 2020).

Assays:
[1] = Plasma stability, rat plasma (HPLC-MS); assay type: in vitro ADME; details: 10 μM, 37° C.
Protocol: Plasma stability determination of the test compounds in rat, dog, cynomolgus monkey and human plasma is performed using HPLC-MS. For rat, incubations are carried out in 96-well polypropylene plates in 5 aliquots of 70 μL each (one for each time point). […] Five time points are analyzed (0, 15, 120, 480 and 1440 min). For dog, monkey and human, test compounds (2 μM, final solvent concentration 1%) were also incubated at 37° C. and analyzed at five time points (0, 10, 30, 60 and 120 min). All incubations are performed in duplicates. The samples are analyzed by HPLC-MS. The percentage of parent compound remaining after incubation in plasma is determined.

[2] = Polymorph screening of solid state drug substances; assay type: physicochemical; details: for Dry method and appearance: after stirring at 50 °C for 72 hours; for XRPD results (Dried): dried solid

Compound	% remaining at time point in minutes, 0 min [1]	% remaining at time point in minutes, 15 min [1]	% remaining at time point in minutes, 120 min [1]	% remaining at time point in minutes, 480 min [1]	% remaining at time point in minutes, 1440 min [1]	also measured
C=C1CC[C@@]2(O)C3Cc4ccc(OC(=O)OCCCCCCCCCCCCCCCC)c5c4[C@@]2(CCN3CC2CC2)[C@H]1O5 [Compound 19, (4aS,7aS,12bS)-3-(cyclopropylmethyl)-4a-hydroxy-7-methylene-2,3,4,4a,5,6,7,7a-octahydro-1H-4,12-methanobenzofuro[3,2-e]isoquinolin-9-yl hexadecyl carbonate]	100%	–	–	–	–	Dry method and appearance ([2]; Acetone): Evaporation/white powder; XRPD results (Dried) ([2]; Acetone): Pattern A; Dry method and appearance ([2]; EtOAc): Evaporation/white powder; XRPD results (Dried) ([2]; EtOAc): Pattern A; Dry method and appearance ([2]; Heptane): Evaporation/white powder; XRPD results (Dried) ([2]; Heptane): Pattern A; Dry method and appearance ([2]; Isopropanol): Evaporation/white powder; XRPD results (Dried) ([2]; Isopropanol): Pattern A; Dry method and appearance ([2]; MTBE): Evaporation/white powder; XRPD results (Dried) ([2]; MTBE): Pattern A
CCCCCCCCCCCCCCCCCC(=O)Oc1ccc2c3c1O[C@H]1C(=O)CC[C@@]4(O)C(C2)N(CC2CC2)CC[C@]314 [Compound 54, (4aS,7aR,12bS)-3-(cyclopropylmethyl)-4a-hydroxy-7-oxo-2,3,4,4a,5,6,7,7a-octahydro-1H-4,12-methanobenzofuro[3,2-e]isoquinolin-9-yl stearate]	100%	–	–	–	–	–
C=C1CC[C@@]2(O)C3Cc4ccc(OC(=O)OCCCCCCCCCCCCC)c5c4[C@@]2(CCN3CC2CC2)[C@H]1O5 [Compound 30, (4aS,7aS,12bS)-3-(cyclopropylmethyl)-4a-hydroxy-7-methylene-2,3,4,4a,5,6,7,7a-octahydro-1H-4,12-methanobenzofuro[3,2-e]isoquinolin-9-yl tridecyl carbonate]	100%	–	–	–	–	–
C=C1CC[C@@]2(O)C3Cc4ccc(OC(=O)OCCCCCCCCCC)c5c4[C@@]2(CCN3CC2CC2)[C@H]1O5 [Compound 18, (4aS,7aS,12bS)-3-(cyclopropylmethyl)-4a-hydroxy-7-methylene-2,3,4,4a,5,6,7,7a-octahydro-1H-4,12-methanobenzofuro[3,2-e]isoquinolin-9-yl decyl carbonate]	100%	0.6%	0.3%	0.1%	0%	–
C=C1CC[C@@]2(O)C3Cc4ccc(OCOC(=O)OCCCCCCCCCCCCCC)c5c4[C@@]2(CCN3CC2CC2)[C@H]1O5 [Compound 25, (((4aS,7aS,12bS)-3-(cyclopropylmethyl)-4a-hydroxy-7-methylene-2,3,4,4a,5,6,7,7a-octahydro-1H-4,12-methanobenzofuro[3,2-e]isoquinolin-9-yl)oxy)methyl tetradecyl carbonate]	100%	–	–	–	–	–
C=C1CC[C@@]2(O)C3Cc4ccc(OC(=O)NC(C)(C)C)c5c4[C@@]2(CCN3CC2CC2)[C@H]1O5 [Compound 40, (4aS,7aS,12bS)-3-(cyclopropylmethyl)-4a-hydroxy-7-methylene-2,3,4,4a,5,6,7,7a-octahydro-1H-4,12-methanobenzofuro[3,2-e]isoquinolin-9-yl tert-butylcarbamate]	–	–	–	–	–	Dry method and appearance ([2]; Acetone): Evaporation/white powder; XRPD results (Dried) ([2]; Acetone): Amorphous; Dry method and appearance ([2]; EtOAc): Evaporation/white powder; XRPD results (Dried) ([2]; EtOAc): Pattern A; Dry method and appearance ([2]; Heptane): Centrifugation/white powder; XRPD results (Dried) ([2]; Heptane): Pattern A; Dry method and appearance ([2]; Isopropanol): Evaporation/oil; XRPD results (Dried) ([2]; Isopropanol): Amorphous; Dry method and appearance ([2]; MTBE): Evaporation/white powder; XRPD results (Dried) ([2]; MTBE): Amorphous
CCCCCCCCCCCCCCC(=O)Oc1ccc2c3c1O[C@H]1C(=O)CC[C@@]4(O)C(C2)N(CC2CC2)CC[C@]314 [Compound 58, (4aS,7aR,12bS)-3-(cyclopropylmethyl)-4a-hydroxy-7-oxo-2,3,4,4a,5,6,7,7a-octahydro-1H-4,12-methanobenzofuro[3,2-e]isoquinolin-9-yl pentadecanoate]	100%	37%	20%	2.9%	1.8%	–
C=C1CC[C@@]2(O)C3Cc4ccc(OC(=O)OCCCCCCCC)c5c4[C@@]2(CCN3CC2CC2)[C@H]1O5 [Compound 17, (4aS,7aS,12bS)-3-(cyclopropylmethyl)-4a-hydroxy-7-methylene-2,3,4,4a,5,6,7,7a-octahydro-1H-4,12-methanobenzofuro[3,2-e]isoquinolin-9-yl octyl carbonate]	100%	0%	0%	0%	0%	–
CCCCCCCCCCCCCC(=O)Oc1ccc2c3c1O[C@H]1C(=O)CC[C@@]4(O)C(C2)N(CC2CC2)CC[C@]314 [Compound 57, (4aS,7aR,12bS)-3-(cyclopropylmethyl)-4a-hydroxy-7-oxo-2,3,4,4a,5,6,7,7a-octahydro-1H-4,12-methanobenzofuro[3,2-e]isoquinolin-9-yl tetradecanoate]	100%	–	3.2%	1.2%	0%	–
CCCCCCCCCCCCCCCCCCCCCC(=O)Oc1ccc2c3c1O[C@H]1C(=O)CC[C@@]4(O)C(C2)N(CC2CC2)CC[C@]314 [Compound 51, (4aS,7aR,12bS)-3-(cyclopropylmethyl)-4a-hydroxy-7-oxo-2,3,4,4a,5,6,7,7a-octahydro-1H-4,12-methanobenzofuro[3,2-e]isoquinolin-9-yl docosanoate]	100%	–	–	–	–	–
CCCCCCCCOC(=O)Oc1ccc2c3c1O[C@H]1C(=O)CC[C@@]4(O)C(C2)N(CC2CC2)CC[C@]314 [Compound 23, (4aS,7aR,12bS)-3-(cyclopropylmethyl)-4a-hydroxy-7-oxo-2,3,4,4a,5,6,7,7a-octahydro-1H-4,12-methanobenzofuro[3,2-e]isoquinolin-9-yl octyl carbonate]	100%	0%	0%	0%	0%	–
CCCCCCCCCCCCCCCCCCCC(=O)Oc1ccc2c3c1O[C@H]1C(=O)CC[C@@]4(O)C(C2)N(CC2CC2)CC[C@]314 [Compound 50, (4aS,7aR,12bS)-3-(cyclopropylmethyl)-4a-hydroxy-7-oxo-2,3,4,4a,5,6,7,7a-octahydro-1H-4,12-methanobenzofuro[3,2-e]isoquinolin-9-yl icosanoate]	100%	–	–	–	–	–
C=C1CC[C@@]2(O)C3Cc4ccc(OC(=O)CCCCCCCCCCCCCCCCCCC)c5c4[C@@]2(CCN3CC2CC2)[C@H]1O5 [Compound 16, (4aS,7aS,12bS)-3-(cyclopropylmethyl)-4a-hydroxy-7-methylene-2,3,4,4a,5,6,7,7a-octahydro-1H-4,12-methanobenzofuro[3,2-e]isoquinolin-9-yl icosanoate]	–	–	–	–	–	Dry method and appearance ([2]; Acetone): Evaporation/white powder; XRPD results (Dried) ([2]; Acetone): Pattern A; Dry method and appearance ([2]; EtOAc): Evaporation/white powder; XRPD results (Dried) ([2]; EtOAc): Pattern A; Dry method and appearance ([2]; Heptane): Centrifugation/white powder; XRPD results (Dried) ([2]; Heptane): Pattern A; Dry method and appearance ([2]; Isopropanol): Centrifugation/white powder; XRPD results (Dried) ([2]; Isopropanol): Pattern A; Dry method and appearance ([2]; MTBE): Evaporation/white powder; XRPD results (Dried) ([2]; MTBE): Pattern A
C=C1CC[C@@]2(O)C3Cc4ccc(OC(=O)CCCCCCC/C=C\CCCCCCCC)c5c4[C@@]2(CCN3CC2CC2)[C@H]1O5 [Compound 36, (4aS,7aS,12bS)-3-(cyclopropylmethyl)-4a-hydroxy-7-methylene-2,3,4,4a,5,6,7,7a-octahydro-1H-4,12-methanobenzofuro[3,2-e]isoquinolin-9-yl oleate]	100%	–	–	–	–	–
Enalapril maleate salt [reference compound]	100%	44%	2.9%	8.2%	4.8%	–
